The record followed here is ChEMBL document CHEMBL1201862, “PubChem BioAssay data set” (2004).

Among the test systems are SK-OV-3; ACHN; U-251; CCRF-CEM; SNB-75; SN12C; UACC-257; CAKI-1; IGROV-1; SR; A498; SW-620; PC-3; UO-31; OVCAR-5; SNB-19; RPMI-8226; NCI-H226; A549.
Experiment in all cases: inhibition of tumour cell growth, NCI panel, 48 h

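1) Cells in 96-well plates. 2) Compound, 48 h, 5 concentrations. 3) Linear interpolation between surrounding doses. 4) Unreached endpoint = highest concentration. GI50 marks 50% less growth.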 Calls of active or inactive are those of the source. No stated cut-off is given here; in the data, active = GI50 up to about 1.1 µM and inactive = higher.

Consider `O=C1C(C(O)(C(F)(F)F)C(F)(F)F)CCC1C(O)(C(F)(F)F)C(F)(F)F` (stereo not given), for which the GI50 with SK-OV-3 was 23 µM (inactive); in the assay with ACHN, 1.8 µM (inactive); with U-251 it was 13.5 µM (inactive); with CCRF-CEM it was 1.15 µM (inactive); in the assay on SNB-75, 0.234 µM (active); in the assay on SN12C, 0.684 µM (active). For the same compound, the GI50 in the assay on UACC-257 is 7.67 µM (inactive); in the assay on CAKI-1 it was 0.341 µM (active); with IGROV-1, 5.48 µM (inactive); in the assay with SR, 0.215 µM (active); in the assay with A498, 0.964 µM (active); with SW-620, 5.89 µM (inactive). Moreover, the GI50 is 0.176 µM (active) with PC-3; 1.09 µM (active) in the assay with UO-31; 9.98 µM (inactive) in the assay with OVCAR-5; 17.9 µM (inactive) in the assay with SNB-19; 0.142 µM (active) in the assay with RPMI-8226; 0.33 µM (active) in the assay on NCI-H226. Further, the GI50 in the assay on A549 was 1.91 µM (inactive).

For `CSc1c2c(C)n[nH]c2nn1-c1ccccc1`, the GI50 in the assay on SK-OV-3 is > 100 µM (inactive); with U-251 it was 61.4 µM (inactive); with CCRF-CEM, 33 µM (inactive); in the assay with SNB-75, > 100 µM (inactive); in the assay with SN12C it was > 100 µM (inactive); in the assay with UACC-257 it was > 100 µM (inactive). For the same compound, the GI50 in the assay with CAKI-1 was 21.1 µM (inactive); in the assay with SR, 20.2 µM (inactive); with A498 it was 90.8 µM (inactive); in the assay on SW-620, 57.1 µM (inactive); in the assay on PC-3, 58.7 µM (inactive); in the assay on UO-31 it was 46.7 µM (inactive). Moreover, the GI50 in the assay on OVCAR-5 was > 100 µM (inactive); in the assay with SNB-19 it was > 100 µM (inactive); in the assay on RPMI-8226, > 100 µM (inactive); in the assay with NCI-H226, 58.5 µM (inactive); with A549, > 100 µM (inactive).

For `O=C1c2cccc([N+](=O)[O-])c2C(=O)N1c1ncn[nH]1`, the GI50 in the assay on SK-OV-3 was 32.7 µM (inactive); with ACHN, > 100 µM (inactive); with U-251, 38.6 µM (inactive); in the assay on CCRF-CEM it was > 100 µM (inactive); in the assay with SNB-75, 23.6 µM (inactive); in the assay on SN12C, > 100 µM (inactive). Also, the GI50 with UACC-257 is > 100 µM (inactive); with CAKI-1, > 100 µM (inactive); in the assay with IGROV-1, > 100 µM (inactive); with SR it was > 100 µM (inactive); in the assay on A498 it was 53 µM (inactive); in the assay on SW-620, > 100 µM (inactive). Further, the GI50 was > 100 µM (inactive) with PC-3; > 100 µM (inactive) with UO-31; > 100 µM (inactive) in the assay with OVCAR-5; 29.7 µM (inactive) in the assay with SNB-19; > 100 µM (inactive) in the assay with RPMI-8226; 81.8 µM (inactive) in the assay with NCI-H226. Besides, the GI50 in the assay on A549 is > 100 µM (inactive).

`O=C(CN1CCOCC1)c1ccc2c(c1)oc(=O)n2CCN1CCCC1`: the GI50 in the assay on SK-OV-3, in the assay on ACHN, in the assay on U-251, with CCRF-CEM, in the assay on SNB-75 and in the assay on SN12C was > 100 µM (inactive) throughout. The GI50 in the assay on UACC-257, in the assay with CAKI-1, with IGROV-1, in the assay with SR, in the assay on A498 and with SW-620 was > 100 µM (inactive) throughout. The GI50 in the assay with PC-3, with OVCAR-5, in the assay on SNB-19, with RPMI-8226 and in the assay with NCI-H226 was > 100 µM (inactive) in each case.

For `N=C(N)N/N=C/c1c(-c2ccc([N+](=O)[O-])cc2)nc2sc(Cl)cn12`, the GI50 in the assay with SK-OV-3 was 1.8 µM (inactive); in the assay on ACHN it was 1.27 µM (inactive); with U-251 it was 0.418 µM (active); with CCRF-CEM, 0.277 µM (active); in the assay on SNB-75, 0.593 µM (active); in the assay with SN12C, 1.31 µM (inactive). The GI50 with CAKI-1 was 1.67 µM (inactive); in the assay on IGROV-1, 1.78 µM (inactive); in the assay with SR, 0.0731 µM (active); in the assay on A498, 0.873 µM (active); in the assay with SW-620 it was 0.226 µM (active); in the assay on PC-3 it was 1.12 µM (active). For the same compound, the GI50 in the assay with UO-31 was 0.979 µM (active); in the assay with OVCAR-5, 1.21 µM (inactive); in the assay with SNB-19, 0.667 µM (active); in the assay on RPMI-8226 it was 1.32 µM (inactive); in the assay on NCI-H226 it was 1.76 µM (inactive); with A549, 0.593 µM (active).

As to `COc1ccc([C@@]23OC[C@@H]4[C@@H](OC[C@@H]42)c2cc(OC)c(OC)cc23)cc1OC`, the GI50 in the assay on SK-OV-3, in the assay on ACHN, with U-251, in the assay on SNB-75, in the assay on CAKI-1 and in the assay with IGROV-1 was > 100 µM (inactive) throughout. The GI50 in the assay with SR, in the assay on A498, with SW-620, with PC-3, with UO-31 and in the assay on OVCAR-5 was > 100 µM (inactive) throughout. The GI50 in the assay with SNB-19, in the assay on RPMI-8226, in the assay on NCI-H226 and in the assay on A549 was > 100 µM (inactive) each time.

In the case of `CCCCCC(CO)C(O)(C(F)(F)F)C(F)(F)F` (stereo not given), the GI50 in the assay with SK-OV-3, with ACHN, in the assay with U-251, in the assay with SNB-75, in the assay with SN12C and with UACC-257 was > 10 µM (inactive) throughout. Further, the GI50 with CAKI-1, in the assay with IGROV-1, in the assay with SR, with A498, in the assay with SW-620 and in the assay with PC-3 was > 10 µM (inactive) each time. Also, the GI50 in the assay with OVCAR-5, in the assay on SNB-19, in the assay with RPMI-8226, in the assay with NCI-H226 and with A549 was > 10 µM (inactive) in each case.

For the compound `Cc1cc(S(=O)(=O)Nc2nnc3c4ccccc4cnn23)c(S)cc1Cl`, the GI50 in the assay with SK-OV-3 is 34.7 µM (inactive); in the assay with ACHN, > 100 µM (inactive); in the assay with U-251, 29.9 µM (inactive); with CCRF-CEM it was > 100 µM (inactive); in the assay on SNB-75 it was 69.8 µM (inactive); in the assay on SN12C it was > 100 µM (inactive). Moreover, the GI50 with UACC-257 was > 100 µM (inactive); in the assay on CAKI-1, > 100 µM (inactive); with IGROV-1, 39.2 µM (inactive); in the assay on SR it was > 100 µM (inactive); in the assay with A498 it was > 85.1 µM (inactive); in the assay on SW-620 it was > 100 µM (inactive). The GI50 with PC-3 is > 100 µM (inactive); in the assay with UO-31, > 91.2 µM (inactive); in the assay on OVCAR-5 it was > 100 µM (inactive); with SNB-19, 26.5 µM (inactive); in the assay with RPMI-8226, > 100 µM (inactive); in the assay with NCI-H226, 24.1 µM (inactive). Further, the GI50 in the assay on A549 was 70.5 µM (inactive).

On to `CC(=O)OCC(OC(C)=O)C1C[C@H]2O[C@@H]3[C@H](C[C@H]2O1)O[C@@]1(C[C@@H]3C)C[C@H](C)[C@@H]2O[C@]3(C[C@@H]2O1)C[C@H]1O[C@H]2[C@H](C)[C@H]4OC(=O)C[C@H]5CC[C@@H]6OC7[C@H]8O[C@]9(CC[C@H]%10CC(=O)[C@H](CC[C@H]%11C[C@@H](C)C(=O)C(C[C@@H]4O[C@H]2C[C@H]1O3)O%11)O%10)CC8O[C@@H]7[C@@H](O9)[C@H]6O5` (stereo not given in full), for which the GI50 was 0.00728 µM (active) in the assay with SK-OV-3; 0.0627 µM (active) in the assay with ACHN; 0.00506 µM (active) in the assay with U-251; 0.00436 µM (active) in the assay with CCRF-CEM; 0.00265 µM (active) in the assay on SNB-75; 0.0142 µM (active) with SN12C. The GI50 is 0.00515 µM (active) with CAKI-1; 0.00322 µM (active) with IGROV-1; 0.000233 µM (active) with SR; > 0.434 µM (active) in the assay with A498; 0.00438 µM (active) with SW-620; 0.00337 µM (active) in the assay on PC-3. Besides, the GI50 with UO-31 is 0.0388 µM (active); in the assay on SNB-19, 0.0101 µM (active); in the assay on RPMI-8226, 0.00229 µM (active); in the assay on NCI-H226, 0.00703 µM (active); with A549, 0.00501 µM (active).

Regarding `O=C(NC/C(Cl)=C/Cl)Nc1c2ccccc2nc2ccccc12`, the GI50 was > 100 µM (inactive) with SK-OV-3; 80.5 µM (inactive) in the assay on ACHN; 70.8 µM (inactive) with U-251; > 100 µM (inactive) in the assay on SNB-75; 69.7 µM (inactive) in the assay on SN12C; 78.9 µM (inactive) in the assay with UACC-257. In addition, the GI50 in the assay on CAKI-1 is > 100 µM (inactive); in the assay on IGROV-1, 35.5 µM (inactive); in the assay on SR, 20.5 µM (inactive); in the assay with A498, 67.1 µM (inactive); with SW-620, > 100 µM (inactive); in the assay with PC-3 it was > 100 µM (inactive). The GI50 is > 100 µM (inactive) in the assay on UO-31; 99.3 µM (inactive) with OVCAR-5; > 100 µM (inactive) in the assay on SNB-19; 53.3 µM (inactive) in the assay on RPMI-8226; 31.8 µM (inactive) with NCI-H226; > 100 µM (inactive) in the assay with A549.

For `O=CC1C(Cl)=Nc2nc3ccccc3n2C1c1ccccc1` (stereo not given), the GI50 in the assay with ACHN was 17.4 µM (inactive); in the assay with U-251 it was 18.2 µM (inactive); with CCRF-CEM, 12.4 µM (inactive); with SNB-75, 17 µM (inactive); in the assay with SN12C, 20.7 µM (inactive); with UACC-257, 22.6 µM (inactive). In addition, the GI50 is 21.4 µM (inactive) in the assay with CAKI-1; 15.9 µM (inactive) in the assay on IGROV-1; 0.861 µM (active) in the assay with SR; 3.01 µM (inactive) in the assay on A498; 19.4 µM (inactive) with SW-620; 17.3 µM (inactive) with PC-3. Also, the GI50 in the assay with UO-31 is 14.7 µM (inactive); in the assay on OVCAR-5, 23.2 µM (inactive); with SNB-19, 25.5 µM (inactive); with RPMI-8226, 14 µM (inactive); with NCI-H226, 20.2 µM (inactive); with A549 it was 23.8 µM (inactive).
